# Laboratory results from patent US8580813B2, “Cyclic azaindole-3-carboxamides, their preparation and their use as pharmaceuticals” (Sanofi, priority 2008, dated 2013).
# Molecular target: T1, Recombinant human renin (Homo sapiens, UniProt P00797)
# T1 construct: purchased Cayman 10006217
# T1 sequence (P00797 67-406): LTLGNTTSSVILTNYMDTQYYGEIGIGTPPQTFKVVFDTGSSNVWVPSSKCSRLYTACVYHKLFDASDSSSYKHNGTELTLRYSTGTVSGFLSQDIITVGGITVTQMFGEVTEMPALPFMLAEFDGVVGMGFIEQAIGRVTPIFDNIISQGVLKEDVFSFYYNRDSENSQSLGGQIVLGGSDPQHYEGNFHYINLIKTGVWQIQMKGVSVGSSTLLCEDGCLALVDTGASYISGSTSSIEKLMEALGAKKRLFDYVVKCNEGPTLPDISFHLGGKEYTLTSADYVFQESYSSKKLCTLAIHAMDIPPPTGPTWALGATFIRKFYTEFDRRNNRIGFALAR
# Assay: Inhibition of renin (fluorogenic peptide substrate)
# Assay type: biochemical
# Settings: recombinant human renin 5 nM, substrate 10 μM, 2 h at room temperature, Tris buffer pH 8; compounds tested as the obtained salt
# Protocol: M-2050; […] The increase in fluorescence, which is due to fluorescence resonance energy transfer, was recorded at an excitation wavelength of 330 nm and an emission wavelength of 485 nm in a microplate spectrofluorometer. Inhibitory concentrations IC50 were calculated from the percentage of inhibition of renin activity as a function of the concentration of the test compound. […] Representative IC50 values, which were determined with the compounds in the form of the obtained salt indicated in the examples above, are listed in table 8.
row,Compound,IC50 [nM]
1,"COc1cc2c(C(=O)N3CCNCC3)c(Cc3cccc(F)c3C)n(-c3ccccc3)c2cn1 [Example 22, [2-(3-Fluoro-2-methyl-benzyl)-5-methoxy-1-phenyl-1H-pyrrolo[2,3-c]pyridin-3-yl]-piperazin-1-yl-methanone]",850
2,"Cc1c(F)cccc1Cc1c(C(=O)N2CCNCC2)c2cc(O)cnc2n1-c1ccccc1 [Example 31, [2-(3-Fluoro-2-methyl-benzyl)-5-hydroxy-1-phenyl-1H-pyrrolo[2,3-b]pyridin-3-yl]-piperazin-1-yl-methanone]",5.6
3,"Cc1ccc(F)c(C)c1Oc1c(C(=O)N2CCNCC2)c2ccncc2n1-c1ccccc1 [Example 37, [2-(3-Fluoro-2,6-dimethyl-phenoxy)-1-phenyl-1H-pyrrolo[2,3-c]pyridin-3-yl]-piperazin-1-yl-methanone]",1.7
4,"Cc1ccc(F)cc1Oc1c(C(=O)N2CCNCC2)c2ccnc(Cl)c2n1-c1ccccc1 [Example 38, [7-Chloro-2-(5-fluoro-2-methyl-phenoxy)-1-phenyl-1H-pyrrolo[2,3-c]pyridin-3-yl]-piperazin-1-yl-methanone]",320
5,"Cc1c(F)cccc1Cc1nccc2c(C(=O)N3CCNCC3)c(Cc3cccc(F)c3C)n(-c3ccccc3)c12 [Example 40, [2,7-Bis-(3-fluoro-2-methyl-benzyl)-1-phenyl-1H-pyrrolo[2,3-c]pyridin-3-yl]-piperazin-1-yl-methanone]",5.1
6,"Cc1cccc(C)c1Oc1c(C(=O)N2CCNCC2)c2cnc(O)cc2n1C1CCCCC1 [Example 49, [1-Cyclohexyl-2-(2,6-dimethyl-phenoxy)-6-hydroxy-1H-pyrrolo[3,2-c]pyridin-3-yl]-piperazin-1-yl-methanone]",80
7,"CCOc1cnc2c(C(=O)N3CCNCC3)c(Oc3c(C)cccc3C)n(-c3ccccc3)c2c1 [Example 54, [2-(2,6-Dimethyl-phenoxy)-6-ethoxy-1-phenyl-1H-pyrrolo[3,2-b]pyridin-3-yl]-piperazin-1-yl-methanone]",77
8,"Cc1cccc(C)c1Oc1c(C(=O)N2CCNCC2)c2ncc(OCC(=O)O)cc2n1-c1ccccc1 [Example 57, [2-(2,6-Dimethyl-phenoxy)-1-phenyl-3-(piperazine-1-carbonyl)-1H-pyrrolo[3,2-b]pyridin-6-yloxy]-acetic acid]",110
9,"COC(=O)CC1CN(C(=O)c2c(Oc3c(C)cccc3C)n(-c3ccccc3)c3cccnc23)CCN1 (stereo not shown) [Example 58, {4-[2-(2,6-Dimethyl-phenoxy)-1-phenyl-1H-pyrrolo[3,2-b]pyridine-3-carbonyl]-piperazin-2-yl}-acetic acid methyl ester]",57
10,"CNC(=O)CC1CN(C(=O)c2c(Oc3c(C)cccc3C)n(-c3ccccc3)c3cccnc23)CCN1 (stereo not shown) [Example 59, 2-{4-[2-(2,6-Dimethyl-phenoxy)-1-phenyl-1H-pyrrolo[3,2-b]pyridine-3-carbonyl]-piperazin-2-yl}-N-methyl-acetamide]",70
11,COC[C@H]1CN(C(=O)c2c(Oc3c(C)cccc3C)n(-c3ccccc3)c3cccnc23)CCN1 [Example 89],290
12,Cc1cccc(C)c1Oc1c(C(=O)N2CCN[C@@H](CC(C)C)C2)c2ncccc2n1-c1ccccc1 [Example 97],7000
13,COc1cc2c(cn1)c(C(=O)N1CCN[C@@H](C)C1)c(Cc1cccc(F)c1C)n2C1CCCCC1 [Example 113],320
14,Cc1c(F)cccc1Cc1c(C(=O)N2CCN[C@@H](CO)C2)c2cnc(O)cc2n1C1CCCCC1 [Example 116],1100
15,CCCc1ccnc2c1c(C(=O)N1CCNCC1)c(Oc1cc(F)ccc1C)n2-c1ccccc1 [Example 133],1850
16,COc1ccc2c(C(=O)N3CCNCC3)c(Oc3c(C)cccc3C)n(-c3ccccc3)c2n1 [Example 134],3

# The next lines start with the values.
row,IC50 [nM],Compound
1,250,"Cc1ccccc1Oc1c(C(=O)N2CCNCC2)c2ncccc2n1-c1ccccc1 [Example 1, [1-Phenyl-2-(2-methyl-phenoxy)-1H-pyrrolo[3,2-b]pyridin-3-yl]-piperazin-1-yl-methanone]"
2,120,"Cc1ccccc1Cc1c(C(=O)N2CCNCC2)c2ncccc2n1-c1ccccc1 [Example 3, [2-(2-Methyl-benzyl)-1-phenyl-1H-pyrrolo[3,2-b]pyridin-3-yl]-piperazin-1-yl-methanone]"
3,100,"O=C(c1c(Cc2c(F)cccc2Cl)n(-c2ccccc2)c2ccncc12)N1CCNCC1 [Example 13, [2-(2-Chloro-6-fluoro-benzyl)-1-phenyl-1H-pyrrolo[3,2-c]pyridin-3-yl]-piperazin-1-yl-methanone]"
4,86,"Cc1c(F)cccc1Cc1c(C(=O)N2CCNCC2)c2cccnc2n1-c1ccccc1 [Example 27, [2-(3-Fluoro-2-methyl-benzyl)-1-phenyl-1H-pyrrolo[2,3-b]pyridin-3-yl]-piperazin-1-yl-methanone]"
5,1000,"CC(c1ccccc1)c1c(C(=O)N2CCNCC2)c2ncccc2n1-c1ccccc1 (stereo not shown) [Example 50, [1-Phenyl-2-(1-phenyl-ethyl)-1H-pyrrolo[3,2-b]pyridin-3-yl]-piperazin-1-yl-methanone]"
6,420,Cc1cccc(C)c1Oc1c(C(=O)N2CCNCC2Cc2ccccc2)c2ncccc2n1-c1ccccc1 (stereo not shown) [Example 106]
7,650,Cc1c(F)cc(F)cc1Oc1c(C(=O)N2CCNCC2)c2ncccc2n1-c1ccccc1 [Example 111]
8,170,Cc1c(F)cccc1Oc1c(C(=O)N2CCNCC2)c2cccnc2n1-c1ccccc1 [Example 129]
9,190,"Cc1ccc(F)cc1Sc1c(C(=O)N2CCN[C@@H](C)C2)c2ncccc2n1-c1ccccc1 [Example 139, [2-(5-Fluoro-2-methyl-phenylsulfanyl)-1-phenyl-1H-pyrrolo[3,2-b]pyridin-3-yl]-((S)-3-methyl-piperazin-1-yl)-methanone]"
